Test results taken from PubChem BioAssay (NCI).
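Here, GI50 denotes the concentration required for 50% inhibition of growth. Definition used: TGI = concentration required for complete inhibition of growth.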

What was measured:
Experiment in all cases: inhibition of tumour cell growth, NCI panel, 384-well format
[1] = system: 786-0 renal
[2] = system: A498 renal
[3] = system: A549 NSCLC
[4] = system: ACHN renal
[5] = system: BT-549 breast
[6] = system: CAKI-1 renal
[7] = system: CCRF-CEM leukemia
[8] = system: COLO 205 colon
[9] = system: DU-145 prostate
[10] = system: EKVX NSCLC
[11] = system: HCC-2998 colon
[12] = system: HCT-116 colon
[13] = system: HCT-15 colon
[14] = system: HL-60(TB) leukemia
[15] = system: HOP-62 NSCLC
[16] = system: HOP-92 NSCLC
[17] = system: HS 578T breast
[18] = system: HT29 colon
[19] = system: IGROV1 ovarian
[20] = system: K-562 leukemia
[21] = system: KM12 colon
[22] = system: LOX IMVI melanoma
[23] = system: M14 melanoma
[24] = system: MALME-3M melanoma
[25] = system: MCF7 breast
[26] = system: MDA-MB-231 breast
[27] = system: MDA-MB-435 melanoma
[28] = system: MDA-MB-468 breast
[29] = system: MOLT-4 leukemia
[30] = system: NCI-H226 lung
[31] = system: NCI-H23 lung
[32] = system: NCI-H322M lung
[33] = system: NCI-H460 NSCLC
[34] = system: NCI-H522 lung
[35] = system: NCI/ADR-RES ovarian
[36] = system: OVCAR-3 ovarian
[37] = system: OVCAR-4 ovarian
[38] = system: OVCAR-5 ovarian
[39] = system: OVCAR-8 ovarian
[40] = system: PC-3 prostate
[41] = system: RPMI-8226 leukemia
[42] = system: RXF 393 renal
[43] = system: SF-268 CNS
[44] = system: SF-295 CNS
[45] = system: SF-539 CNS
[46] = system: SK-MEL-2 melanoma
[47] = system: SK-MEL-28 melanoma
[48] = system: SK-MEL-5 melanoma
[49] = system: SK-OV-3 ovarian
[50] = system: SN12C renal
[51] = system: SNB-19 CNS
[52] = system: SNB-75 CNS
[53] = system: SW-620 colon
[54] = system: T-47D breast
[55] = system: TK-10 renal
[56] = system: U251 glioblastoma
[57] = system: UACC-257 melanoma
[58] = system: UACC-62 melanoma
[59] = system: UO-31 renal

CC[C@H](CC#N)OC(=O)N[C@@H](C)c1cccc(NC(=O)Nc2ccc(-c3cnco3)c(OC)c2)c1
GI50 [1]: 154 nM
TGI [1]: 1870 nM
GI50 [2]: 56.9 nM
TGI [2]: 1720 nM
GI50 [3]: 65.7 nM
TGI [3]: 1680 nM
GI50 [4]: 210 nM
TGI [4]: 12700 nM
GI50 [5]: 115 nM
TGI [5]: 951 nM
GI50 [6]: 243 nM
TGI [6]: 11900 nM
GI50 [7]: 64.9 nM
TGI [7]: 248 nM
GI50 [8]: 46.3 nM
TGI [8]: 13100 nM
GI50 [9]: 168 nM
TGI [9]: 11000 nM
GI50 [10]: 349 nM
TGI [10]: 12300 nM
GI50 [11]: 212 nM
TGI [11]: 1450 nM
GI50 [12]: 75 nM
TGI [12]: 10600 nM
GI50 [13]: 286 nM
TGI [13]: 11800 nM
GI50 [14]: 53.9 nM
TGI [14]: 220 nM
GI50 [15]: 258 nM
TGI [15]: 10700 nM
GI50 [16]: 637 nM
TGI [16]: 22700 nM
GI50 [17]: 171 nM
TGI [17]: 1540 nM
GI50 [18]: 137 nM
TGI [18]: > 100000 nM
GI50 [19]: 60.7 nM
TGI [19]: 10600 nM
GI50 [20]: 48.4 nM
TGI [20]: 11200 nM
GI50 [21]: 168 nM
TGI [21]: 12400 nM
GI50 [22]: 68.9 nM
TGI [22]: 1400 nM
GI50 [23]: 159 nM
TGI [23]: 1140 nM
GI50 [24]: 168 nM
TGI [24]: 13100 nM
GI50 [25]: 159 nM
TGI [25]: 11300 nM
GI50 [26]: 300 nM
TGI [26]: 20600 nM
GI50 [27]: 353 nM
TGI [27]: 14600 nM
GI50 [28]: 140 nM
TGI [28]: 825 nM
GI50 [29]: 20 nM
TGI [29]: 36.7 nM
GI50 [30]: 297 nM
TGI [30]: 10500 nM
GI50 [31]: 154 nM
TGI [31]: 664 nM
GI50 [32]: 275 nM
TGI [32]: 14700 nM
GI50 [33]: 74 nM
TGI [33]: 263 nM
GI50 [34]: 428 nM
TGI [34]: 11900 nM
GI50 [35]: 5600 nM
TGI [35]: 18000 nM
GI50 [36]: 57.5 nM
TGI [36]: 10600 nM
GI50 [37]: 373 nM
TGI [37]: 15800 nM
GI50 [38]: 270 nM
TGI [38]: > 100000 nM
GI50 [39]: 354 nM
TGI [39]: 13900 nM
GI50 [40]: 178 nM
TGI [40]: 10900 nM
GI50 [41]: 216 nM
TGI [41]: 957 nM
GI50 [42]: 168 nM
TGI [42]: 660 nM
GI50 [43]: 244 nM
TGI [43]: 11000 nM
GI50 [44]: 316 nM
TGI [44]: 12000 nM
GI50 [45]: 108 nM
TGI [45]: 8860 nM
GI50 [46]: 506 nM
TGI [46]: 4370 nM
GI50 [47]: 126 nM
TGI [47]: 11000 nM
GI50 [48]: 78.7 nM
TGI [48]: 348 nM
GI50 [49]: 57.4 nM
TGI [49]: 898 nM
GI50 [50]: 314 nM
TGI [50]: 16600 nM
GI50 [51]: 166 nM
TGI [51]: > 100000 nM
GI50 [52]: 685 nM
TGI [52]: 14300 nM
GI50 [53]: 77.7 nM
TGI [53]: 12000 nM
GI50 [54]: 486 nM
TGI [54]: 10600 nM
GI50 [55]: 416 nM
TGI [55]: 18500 nM
GI50 [56]: 45.5 nM
TGI [56]: 11400 nM
GI50 [57]: 288 nM
TGI [57]: 11500 nM
GI50 [58]: 236 nM
TGI [58]: 10600 nM
GI50 [59]: 354 nM
TGI [59]: 8350 nM
